{"source": "patent US20260234159A1", "about": "“SMALL MOLECULE TREATMENT OF FATTY LIVER DISEASE AND HCC” (SCANDIEDGE THERAPEUTICS AB, priority 2023, published 2026)", "key": {"[1]": {"assay": "MTT cell viability / IC50 in growth media", "assay_type": "cell-based, human", "conditions": "human, HepG2 cells; 10 μM, treatment for 2 days"}, "[2]": {"system": "HepG2 cells", "assay": "MTT cell viability / IC50 in growth media", "assay_type": "cell-based, human", "conditions": "Homo sapiens, 48 h; HepG2, treatment for 2 days, 30 μM to 30 nM"}, "[3]": {"assay": "In vivo toxicological study in rats: clinical observations and body weight", "conditions": "300 mg/kg oral administration", "procedure": "Forty-two male and forty-two female rats of the Wistar strain were allocated to the study. Three groups of three males and three females were given doses of 30, 100 and 300 mg/kg of target compounds (Table 8). The vehicle was 1.5 w/w % HPMC, 1.5 w/w % PS80 in 10 mM PBS, pH 7 and dose volume were 5 mL/kg.\nThe animals were acclimatised at least 14 day prior to the study and exposed to a 12 hours light, 12 hours dark light cycle. The formulations were administered via oral gavage. Administration occurred once daily in the morning for seven consecutive days.\nA check of animal health and welfare status was done at least once on working days and weekend days.\nBody weights were recorded the week before and within 24 hours before start of dosing, on Day 3 and on necropsy Day 8."}, "[4]": {"assay": "In vivo toxicological study in rats: plasma chemistry", "parameters": "species or system rats of the Wistar strain", "conditions": "plasma, 30-300 mg/kg of SET159", "procedure": "Forty-two male and forty-two female rats of the Wistar strain were allocated to the study. Three groups of three males and three females were given doses of 30, 100 and 300 mg/kg of target compounds (Table 8). The vehicle was 1.5 w/w % HPMC, 1.5 w/w % PS80 in 10 mM PBS, pH 7 and dose volume were 5 mL/kg. The animals were acclimatised at least 14 day prior to the study and exposed to a 12 hours light, 12 hours dark light cycle. The formulations were administered via oral gavage. Administration occurred once daily in the morning for seven consecutive days. Blood for scheduled haematology and plasma chemistry were taken at necropsy. For plasma chemistry, 0.6 ml blood (lithium heparin) per animal and for haematology, 0.5 ml blood (K2EDTA) per animal. The blood and plasma were analysed using Exigo analyzer and Vetscan equipment. Blood samples were kept in room temperature […] after collection and mixing. The blood samples were analysed as whole blood within 60 min of collection. The VetScan analyser was calibrated with calibration samples of known plasma levels of each parameter before start of analysis, occasionally during the analysis period of study samples and after completed analyses (Table 10)."}}, "note": "pIC50: −log10 of the molar value.", "data": [{"molecule": "N#Cc1c(NC(=O)c2cccc3ccccc23)sc2c1CCN(C(=O)Nc1ccccc1OC(F)(F)F)C2", "note": "[PKL-A159]", "values": [{"measurement": "viability at 2 days, 10 µM", "setting": "[1]", "value": 61.6, "unit": "%"}, {"measurement": "pIC50", "setting": "[2]", "value": 5.01}, {"measurement": "tolerability (adverse clinical signs, body weight, clinical pathology parameters)", "setting": "[3]", "value": "well tolerated"}, {"measurement": "ALB", "setting": "[4]; Sex/Group F/8", "value": 56, "unit": "g/L"}, {"measurement": "ALP", "setting": "[4]; Sex/Group F/8", "value": 179, "unit": "U/L"}, {"measurement": "ALT", "setting": "[4]; Sex/Group F/8", "value": 22, "unit": "U/L"}, {"measurement": "AMY", "setting": "[4]; Sex/Group F/8", "value": 541, "unit": "U/L"}, {"measurement": "BUN", "setting": "[4]; Sex/Group F/8", "value": 6.2, "unit": "mmol/L"}, {"measurement": "CA", "setting": "[4]; Sex/Group F/8", "value": 2.76, "unit": "mmol/L"}, {"measurement": "CRE", "setting": "[4]; Sex/Group F/8", "value": 39, "unit": "µmol/L"}, {"measurement": "GLOB", "setting": "[4]; Sex/Group F/8", "value": 9, "unit": "g/L"}, {"measurement": "GLU", "setting": "[4]; Sex/Group F/8", "value": 7.8, "unit": "mmol/L"}, {"measurement": "K+", "setting": "[4]; Sex/Group F/8", "value": 4.9, "unit": "mmol/L"}, {"measurement": "NA+", "setting": "[4]; Sex/Group F/8", "value": 139, "unit": "mmol/L"}, {"measurement": "PHOS", "setting": "[4]; Sex/Group F/8", "value": 2.59, "unit": "mmol/L"}, {"measurement": "TBIL", "setting": "[4]; Sex/Group F/8", "value": 4.0, "unit": "µmol/L"}, {"measurement": "TP", "setting": "[4]; Sex/Group F/8", "value": 65, "unit": "g/L"}, {"measurement": "ALB", "setting": "[4]; Sex/Group F/9", "value": 57, "unit": "g/L"}, {"measurement": "ALP", "setting": "[4]; Sex/Group F/9", "value": 135, "unit": "U/L"}, {"measurement": "ALT", "setting": "[4]; Sex/Group F/9", "value": 21, "unit": "U/L"}, {"measurement": "AMY", "setting": "[4]; Sex/Group F/9", "value": 542, "unit": "U/L"}, {"measurement": "BUN", "setting": "[4]; Sex/Group F/9", "value": 5.1, "unit": "mmol/L"}, {"measurement": "CA", "setting": "[4]; Sex/Group F/9", "value": 2.88, "unit": "mmol/L"}, {"measurement": "CRE", "setting": "[4]; Sex/Group F/9", "value": 46, "unit": "µmol/L"}, {"measurement": "GLOB", "setting": "[4]; Sex/Group F/9", "value": 8, "unit": "g/L"}, {"measurement": "GLU", "setting": "[4]; Sex/Group F/9", "value": 7.0, "unit": "mmol/L"}, {"measurement": "K+", "setting": "[4]; Sex/Group F/9", "value": 4.4, "unit": "mmol/L"}, {"measurement": "NA+", "setting": "[4]; Sex/Group F/9", "value": 139, "unit": "mmol/L"}, {"measurement": "PHOS", "setting": "[4]; Sex/Group F/9", "value": 2.65, "unit": "mmol/L"}, {"measurement": "TBIL", "setting": "[4]; Sex/Group F/9", "value": 4.3, "unit": "µmol/L"}, {"measurement": "TP", "setting": "[4]; Sex/Group F/9", "value": 65, "unit": "g/L"}, {"measurement": "ALB", "setting": "[4]; Sex/Group F/10", "value": 53, "unit": "g/L"}, {"measurement": "ALP", "setting": "[4]; Sex/Group F/10", "value": 175, "unit": "U/L"}, {"measurement": "ALT", "setting": "[4]; Sex/Group F/10", "value": 23, "unit": "U/L"}, {"measurement": "AMY", "setting": "[4]; Sex/Group F/10", "value": 481, "unit": "U/L"}, {"measurement": "BUN", "setting": "[4]; Sex/Group F/10", "value": 4.8, "unit": "mmol/L"}, {"measurement": "CA", "setting": "[4]; Sex/Group F/10", "value": 2.89, "unit": "mmol/L"}, {"measurement": "CRE", "setting": "[4]; Sex/Group F/10", "value": 40, "unit": "µmol/L"}, {"measurement": "GLOB", "setting": "[4]; Sex/Group F/10", "value": 9, "unit": "g/L"}, {"measurement": "GLU", "setting": "[4]; Sex/Group F/10", "value": 7.8, "unit": "mmol/L"}, {"measurement": "K+", "setting": "[4]; Sex/Group F/10", "value": 4.7, "unit": "mmol/L"}, {"measurement": "NA+", "setting": "[4]; Sex/Group F/10", "value": 139, "unit": "mmol/L"}, {"measurement": "PHOS", "setting": "[4]; Sex/Group F/10", "value": 2.80, "unit": "mmol/L"}, {"measurement": "TBIL", "setting": "[4]; Sex/Group F/10", "value": 4.0, "unit": "µmol/L"}, {"measurement": "TP", "setting": "[4]; Sex/Group F/10", "value": 62, "unit": "g/L"}, {"measurement": "ALB", "setting": "[4]; Sex/Group M/8", "value": 49, "unit": "g/L"}, {"measurement": "ALP", "setting": "[4]; Sex/Group M/8", "value": 274, "unit": "U/L"}, {"measurement": "ALT", "setting": "[4]; Sex/Group M/8", "value": 25, "unit": "U/L"}, {"measurement": "AMY", "setting": "[4]; Sex/Group M/8", "value": 719, "unit": "U/L"}, {"measurement": "BUN", "setting": "[4]; Sex/Group M/8", "value": 5.9, "unit": "mmol/L"}, {"measurement": "CA", "setting": "[4]; Sex/Group M/8", "value": 2.94, "unit": "mmol/L"}, {"measurement": "CRE", "setting": "[4]; Sex/Group M/8", "value": 29, "unit": "µmol/L"}, {"measurement": "GLOB", "setting": "[4]; Sex/Group M/8", "value": 11, "unit": "g/L"}, {"measurement": "GLU", "setting": "[4]; Sex/Group M/8", "value": 8.0, "unit": "mmol/L"}, {"measurement": "K+", "setting": "[4]; Sex/Group M/8", "value": 5.0, "unit": "mmol/L"}, {"measurement": "NA+", "setting": "[4]; Sex/Group M/8", "value": 141, "unit": "mmol/L"}, {"measurement": "PHOS", "setting": "[4]; Sex/Group M/8", "value": 2.44, "unit": "mmol/L"}, {"measurement": "TBIL", "setting": "[4]; Sex/Group M/8", "value": 4.0, "unit": "µmol/L"}, {"measurement": "TP", "setting": "[4]; Sex/Group M/8", "value": 60, "unit": "g/L"}, {"measurement": "ALB", "setting": "[4]; Sex/Group M/9", "value": 47, "unit": "g/L"}, {"measurement": "ALP", "setting": "[4]; Sex/Group M/9", "value": 324, "unit": "U/L"}, {"measurement": "ALT", "setting": "[4]; Sex/Group M/9", "value": 30, "unit": "U/L"}, {"measurement": "AMY", "setting": "[4]; Sex/Group M/9", "value": 823, "unit": "U/L"}, {"measurement": "BUN", "setting": "[4]; Sex/Group M/9", "value": 6.8, "unit": "mmol/L"}, {"measurement": "CA", "setting": "[4]; Sex/Group M/9", "value": 2.99, "unit": "mmol/L"}, {"measurement": "CRE", "setting": "[4]; Sex/Group M/9", "value": 36, "unit": "µmol/L"}, {"measurement": "GLOB", "setting": "[4]; Sex/Group M/9", "value": 16, "unit": "g/L"}, {"measurement": "GLU", "setting": "[4]; Sex/Group M/9", "value": 8.8, "unit": "mmol/L"}, {"measurement": "K+", "setting": "[4]; Sex/Group M/9", "value": 5.0, "unit": "mmol/L"}, {"measurement": "NA+", "setting": "[4]; Sex/Group M/9", "value": 141, "unit": "mmol/L"}, {"measurement": "PHOS", "setting": "[4]; Sex/Group M/9", "value": 2.43, "unit": "mmol/L"}, {"measurement": "TBIL", "setting": "[4]; Sex/Group M/9", "value": 4.3, "unit": "µmol/L"}, {"measurement": "TP", "setting": "[4]; Sex/Group M/9", "value": 63, "unit": "g/L"}, {"measurement": "ALB", "setting": "[4]; Sex/Group M/10", "value": 50, "unit": "g/L"}, {"measurement": "ALP", "setting": "[4]; Sex/Group M/10", "value": 284, "unit": "U/L"}, {"measurement": "ALT", "setting": "[4]; Sex/Group M/10", "value": 24, "unit": "U/L"}, {"measurement": "AMY", "setting": "[4]; Sex/Group M/10", "value": 806, "unit": "U/L"}, {"measurement": "BUN", "setting": "[4]; Sex/Group M/10", "value": 6.1, "unit": "mmol/L"}, {"measurement": "CA", "setting": "[4]; Sex/Group M/10", "value": 3.02, "unit": "mmol/L"}, {"measurement": "CRE", "setting": "[4]; Sex/Group M/10", "value": 47, "unit": "µmol/L"}, {"measurement": "GLOB", "setting": "[4]; Sex/Group M/10", "value": 13, "unit": "g/L"}, {"measurement": "GLU", "setting": "[4]; Sex/Group M/10", "value": 7.9, "unit": "mmol/L"}, {"measurement": "K+", "setting": "[4]; Sex/Group M/10", "value": 4.8, "unit": "mmol/L"}, {"measurement": "NA+", "setting": "[4]; Sex/Group M/10", "value": 142, "unit": "mmol/L"}, {"measurement": "PHOS", "setting": "[4]; Sex/Group M/10", "value": 2.42, "unit": "mmol/L"}, {"measurement": "TBIL", "setting": "[4]; Sex/Group M/10", "value": 4.3, "unit": "µmol/L"}, {"measurement": "TP", "setting": "[4]; Sex/Group M/10", "value": 62, "unit": "g/L"}]}]}
